Experimental data reported in BindingDB's records for doi:10.1021/jm00150a013 (1986).

Target: Chymotrypsinogen A (Bos taurus) (UniProt P00766)
Assay: Inhibitory activity against bovine Chymotrypsinogen expressed as inhibitory constant

CCCCc1c(C)oc(=O)c(CCCC)c1O
Ki: 1350 µM
